This assay concerns the target T1, LmxCLK1 (Leishmania mexicana, UniProt E9AMP2).
T1 sequence (E9AMP2 1-422): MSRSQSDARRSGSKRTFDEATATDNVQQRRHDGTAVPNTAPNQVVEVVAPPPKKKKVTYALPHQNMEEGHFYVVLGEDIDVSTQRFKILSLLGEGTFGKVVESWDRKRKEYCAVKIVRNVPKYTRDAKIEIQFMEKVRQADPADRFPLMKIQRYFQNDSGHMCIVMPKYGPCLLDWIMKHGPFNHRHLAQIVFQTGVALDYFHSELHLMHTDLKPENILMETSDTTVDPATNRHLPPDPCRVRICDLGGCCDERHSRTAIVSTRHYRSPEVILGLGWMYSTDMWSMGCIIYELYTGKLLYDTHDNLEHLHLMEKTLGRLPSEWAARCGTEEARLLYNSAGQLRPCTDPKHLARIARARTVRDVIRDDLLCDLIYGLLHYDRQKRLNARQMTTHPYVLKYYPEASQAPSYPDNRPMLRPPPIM
The assay can be described thus: biochemical. The class given is binding.

Setting [1] is: DSF, 10 µM compound, 2 µM LmxCLK1, Run 1.
[2] abbreviates: DSF, 10 µM compound, 2 µM LmxCLK1, Run 2.
The mark [3] stands for this setting: DSF, 10 µM compound, 2 µM LmxCLK1, mean of two runs.
Where [4] appears, read: DSF, 10 µM compound, 2 µM LmxCLK1, Run 1, read-out: ΔTm Run 1.
[5] abbreviates: DSF, 10 µM compound, 2 µM LmxCLK1, Run 2, read-out: ΔTm Run 2.
[6] abbreviates: DSF, 10 µM compound, 2 µM LmxCLK1, mean of two runs, read-out: ΔTm Average.

The record followed here is publication PMC7619385 (ACS infectious diseases, 2025).

Where two headings read alike, the source gives them in different places.

As to `CN1CCN(CCOc2cc(OC3CCOCC3)c3c(Nc4c(Cl)ccc5c4OCO5)ncnc3c2)CC1` [Saracatinib (AZD0530)], the “ΔTm Run 1” value under setting [1] is 0.8 °C. Further, the “ΔTm Run 2” value under setting [2] stood at 0.7 °C. Besides, under setting [3], the “ΔTm Average” value was determined as 0.7 °C.
As for `NCC(=O)Nc1ccc(-n2nc(C(F)(F)F)cc2-c2ccc3c(ccc4ccccc43)c2)cc1` [OSU-03012 (AR-12)], the “ΔTm Run 1” value under setting [1] is -0.1 °C. Under setting [2], the “ΔTm Run 2” value turned out to be 0.2 °C. In addition, under setting [3], the “ΔTm Average” value amounted to 0.0 °C.
The term ΔTm denotes the change in melting temperature against a reference sample. In the case of `O=c1c(-c2ccc(O)cc2)coc2cc(O)cc(O)c12` [Genistein], the ΔTm at 10 µM amounted to 0.2 °C under setting [4], 0.3 °C under setting [5] and 0.2 °C under setting [6].
In the case of `CN(c1ncccc1CNc1nc(Nc2ccc3c(c2)CC(=O)N3)ncc1C(F)(F)F)S(C)(=O)=O` [PF-00562271], the “ΔTm Average” value was -0.1, the ΔTm Run 1 came out at 0 °C and the “ΔTm Run 2” value was -0.3.
Consider `Cc1ccc(C(=O)Nc2cccc(C(F)(F)F)c2)cc1Nc1nc(-c2cccnc2)nc2c1cnn2C` [NVP-BHG712], for which the “ΔTm Run 1” value under setting [1] amounted to 0.1 °C. Besides, the “ΔTm Run 2” value under setting [2] was -0.3 °C. Also, the “ΔTm Average” value under setting [3] is -0.1 °C.
Turning to `Cc1cc(O)c2c(c1)C(=O)c1cccc(O)c1C2=O` [Chrysophanic Acid], the ΔTm at 10 µM reads like this: under setting [4], 0 °C; under setting [5], -0.2 °C; under setting [6], -0.1 °C.
The like results for `N#CCNC(=O)c1ccc(-c2ccnc(Nc3ccc(N4CCOCC4)cc3)n2)cc1` [CYT387] were, in that order, 0 °C, -0.1 °C and 0 °C.
The like results for `CS(=O)(=O)N1CCc2c(-c3cnc(N)nc3)nc(N3CCOCC3)nc21` [CH5132799] were, in that order, 0.4 °C, 0.1 °C and 0.2 °C.
With `NC1(Cc2ccc(Cl)cc2)CCN(c2ncnc3[nH]ccc23)CC1` [CCT128930], the “ΔTm Run 1” value under setting [1] worked out at 0.8 °C. In addition, under setting [2], the “ΔTm Run 2” value is 0.6 °C. The “ΔTm Average” value under setting [3] worked out at 0.7 °C.
`Cc1ccc(NC(=O)c2ccc(CN3CCN(C)CC3)cc2)cc1Nc1nc(-c2cccnc2)cs1` [Masitinib (AB1010)]: the “ΔTm Run 1” value under setting [1] amounted to 0.3 °C. Further, the “ΔTm Run 2” value under setting [2] is 0.2 °C. Besides, under setting [3], the “ΔTm Average” value is 0.2 °C.
For `O=C(Nc1ccc(-c2ccnc(Nc3ccc(N4CCOCC4)cc3)n2)cc1)C1CCCN1` (stereo not drawn) [XL019], the ΔTm at 10 µM is, setting by setting: under setting [4], 0.6 °C; under setting [5], 0.4 °C; under setting [6], 0.5 °C.
Take `CC(O)C(=O)O.CC(O)C(=O)O.CN1CCN(c2ccc3nc(-c4c(N)c5c(F)cccc5[nH]c4=O)[nH]c3c2)CC1` [Dovitinib (TKI-258) Dilactic Acid]: under setting [1], the “ΔTm Run 1” value is -0.5 °C. Besides, the “ΔTm Run 2” value under setting [2] was -0.4 °C. The “ΔTm Average” value under setting [3] is -0.4 °C.
Turning to `COCC(=O)NC/C=C/c1ccc2ncnc(Nc3ccc(Oc4ccc(C)nc4)c(C)c3)c2c1` [CP-724714], the ΔTm at 10 µM under setting [4] stood at 0.6 °C, the ΔTm at 10 µM under setting [5] amounted to 0.2 °C and the ΔTm at 10 µM under setting [6] turned out to be 0.4 °C.
For the compound `CC(C)(C)c1cc(/C=C(\C#N)C(N)=S)cc(C(C)(C)C)c1O` [Tyrphostin AG 879], the ΔTm at 10 µM by setting is: under setting [4], -0.1 °C; under setting [5], -0.2 °C; under setting [6], -0.2 °C.
Turning to `Cc1cc(Nc2nc(N[C@@H](C)c3ccc(F)cc3)c(C#N)cc2F)[nH]n1` [AZ 960], the ΔTm at 10 µM runs as follows: under setting [4], 0.3 °C; under setting [5], 0.3 °C; under setting [6], 0.3 °C.
Consider `CCN(CCO)CCCOc1ccc2c(Nc3cc(CC(=O)Nc4cccc(F)c4)[nH]n3)ncnc2c1` [Barasertib (AZD1152-HQPA)], for which the “ΔTm Run 1” value under setting [1] is 0.4 °C. In addition, the “ΔTm Run 2” value under setting [2] is -0.1 °C. Also, the “ΔTm Average” value under setting [3] amounted to 0.1 °C.
As for `Nc1nc(N)c(N=O)c(OCC2CCCCC2)n1` [NU6027], the ΔTm at 10 µM is 0 °C (read-out: ΔTm Average), 0.1 °C (read-out: ΔTm Run 1) and -0.2 °C (read-out: ΔTm Run 2).
Consider PHT-427, for which the “ΔTm Run 1” value under setting [1] was found to be 0.4 °C. The “ΔTm Run 2” value under setting [2] was 0.3 °C. Also, the “ΔTm Average” value under setting [3] is 0.3 °C.
For `COc1cc2ncnc(Nc3cccc(Cl)c3)c2cc1OC` [AG-1478 (Tyrphostin AG-1478)], the “ΔTm Run 1” value under setting [1] turned out to be 0.1 °C. For the same compound, the “ΔTm Run 2” value under setting [2] was 0.3 °C. For the same compound, the “ΔTm Average” value under setting [3] was determined as 0.2 °C.
`CC(C)(C)c1cc(C=C(C#N)C#N)cc(Br)c1O` [AG-1024]: the “ΔTm Run 1” value under setting [1] was determined as 0.0 °C. Moreover, the “ΔTm Run 2” value under setting [2] is -0.2 °C. Further, the “ΔTm Average” value under setting [3] was -0.1 °C.
The like results for `Cc1cc(Nc2cc(N3CCN(C)CC3)nc(Sc3ccc(NC(=O)C4CC4)cc3)n2)n[nH]1` [VX-680 (Tozasertib)] were, in that order, -0.3 °C, -0.4 °C and -0.3 °C.
Regarding `CC(C)(O)CC(=O)NCCn1ccc2ncnc(Nc3ccc(Oc4cccc(C(F)(F)F)c4)c(Cl)c3)c21` [TAK-285], the ΔTm at 10 µM under setting [4] was -0.5 °C, the ΔTm at 10 µM under setting [5] is -0.2 °C and the ΔTm at 10 µM under setting [6] is -0.3 °C.
For the compound `COc1cc2ncnc(Nc3ccc(Cl)cc3F)c2cc1OC` [ZM 306416], the “ΔTm Run 1” value under setting [1] came out at 0.2 °C. In addition, the “ΔTm Run 2” value under setting [2] was 0.0 °C. Further, the “ΔTm Average” value under setting [3] was determined as 0.1 °C.
Consider `CNc1nc(-c2ccc3c(N)n[nH]c3c2)cc(N2C[C@@H](C(=O)NC3CCCCC3)CC[C@H]2C)n1` [GSK2334470], for which the ΔTm at 10 µM is, setting by setting: under setting [4], 0.3 °C; under setting [5], -0.5 °C; under setting [6], -0.1 °C.
Take `Cc1[nH]c(/C=C2\C(=O)Nc3ccccc32)c(C)c1CCC(=O)O` [TSU-68 (SU6668)]: the “ΔTm Run 1” value under setting [1] turned out to be 0.1 °C. In addition, the “ΔTm Run 2” value under setting [2] is -0.1 °C. Moreover, the “ΔTm Average” value under setting [3] was determined as 0.0 °C.
In the same order, the values of `COc1cc2c(Oc3ccc(NC(=O)C4(C(=O)Nc5ccc(F)cc5)CC4)cc3F)ccnc2cc1OCCCN1CCOCC1` [Foretinib (GSK1363089)] are 0.4 °C, -0.4 °C and 0.0 °C.
In the same order, the values of `CS(=O)(=O)O.Cn1cc(C2=C(c3cn(CCCSC(=N)N)c4ccccc34)C(=O)NC2=O)c2ccccc21` [Ro 31-8220 Mesylate] are 1.1 °C, 1.6 °C and 1.3 °C.
Turning to `COc1ccc(-c2ccc3c(N4CCOCC4)nc(N4C[C@@H](C)O[C@@H](C)C4)nc3n2)cc1CO` [KU-0063794], the ΔTm at 10 µM is 0.1 °C under setting [4], 0.1 °C under setting [5] and 0.1 °C under setting [6].
Regarding `COCCOc1ccc2c(c1)ncn2-c1ccc2cccc(N3CCC(N)CC3)c2n1` [CP-673451], the ΔTm at 10 µM stood at 0.1 °C under setting [4], 0 °C under setting [5] and 0 °C under setting [6].
As to `Oc1c2ccccc2c2c3c(cccc13)N=N2` [SP600125], the ΔTm at 10 µM is, setting by setting: under setting [4], 0.1 °C; under setting [5], -0.3 °C; under setting [6], -0.1 °C.
As for `CCN(CC)CCCC(C)Nc1nc(C)cc(Nc2ccc3nc(C)cc(N)c3c2)n1` (stereo not drawn) [NSC 23766], the “ΔTm Run 1” value under setting [1] came out at 0.0 °C. The “ΔTm Run 2” value under setting [2] was -0.1 °C. Under setting [3], the “ΔTm Average” value was determined as 0.0 °C.
In the case of `COc1ccccc1-c1cc(Nc2cccc(CS(N)(=O)=O)c2)ncn1` [LDC000067], the “ΔTm Run 1” value under setting [1] is -0.1 °C. Besides, the “ΔTm Run 2” value under setting [2] was determined as 0.0 °C. Under setting [3], the “ΔTm Average” value was -0.1 °C.
Regarding `FC(F)c1nc2ccccc2n1-c1nc(N2CCOCC2)nc(N2CCOCC2)n1` [ZSTK474], the ΔTm at 10 µM reads like this: under setting [4], 0 °C; under setting [5], 0 °C; under setting [6], 0 °C.
`CC(C)CC(=O)Nc1[nH]nc2c1CN(C(=O)C1CCN(C)CC1)C2(C)C` [PHA-793887]: the ΔTm at 10 µM under setting [4] stood at 0.1 °C, the ΔTm at 10 µM under setting [5] is 0 °C and the ΔTm at 10 µM under setting [6] came to 0.1 °C.
For `C=CC(=O)Nc1ccc2ncnc(Nc3cccc(Br)c3)c2c1` [PD168393], the “ΔTm Run 1” value under setting [1] worked out at 0.3 °C. Also, the “ΔTm Run 2” value under setting [2] was -0.7 °C. The “ΔTm Average” value under setting [3] was -0.2 °C.
In the same order, the values of `CS(=O)(=O)c1cccc(CNc2nc(Nc3ccc4c(c3)CCC(=O)N4)ncc2C(F)(F)F)c1` [PF-573228] are 0.1 °C, -0.3 °C and -0.1 °C.
Turning to `O=C1Nc2ccccc2/C1=C1/Nc2ccccc2C1=O` [Indirubin], the ΔTm at 10 µM is, setting by setting: (read-out: ΔTm Average) 0 °C; (read-out: ΔTm Run 1) 0.1 °C; (read-out: ΔTm Run 2) -0.1 °C.
Turning to `CCN1CCN(Cc2ccc(Nc3ncc(F)c(-c4cc(F)c5nc(C)n(C(C)C)c5c4)n3)nc2)CC1` [LY2835219], the ΔTm at 10 µM came out at 2.2 °C under setting [4], 2.1 °C under setting [5] and 2.2 °C under setting [6].
Regarding `CN(C)CCOc1ccc(-c2nc(-c3ccncc3)c(-c3ccc4c(c3)CC/C4=N\O)[nH]2)cc1` [SB590885], the ΔTm at 10 µM under setting [4] was -0.1 °C, the ΔTm at 10 µM under setting [5] is -0.4 °C and the ΔTm at 10 µM under setting [6] is -0.2 °C.
The like results for `C[C@@H]1CN(CC(=O)Nc2ccc3c(c2)Cc2cccc(-c4cc(=O)cc(N5CCOCC5)o4)c2S3)C[C@H](C)O1` [KU-60019] were, in that order, -0.1 °C, -0.2 °C and -0.1 °C.
